Data published in PubChem BioAssay AID2060344 (Molecular Pharmacology Branch, DTP, NCI, 2025).
Values joined by “and” are separate entries in the source; they are usually repeats but may differ in a detail not shown here. Identical values can stand only once. One block for each compound: values may come before it.

Tested on: SK-MEL-2 multi-cell spheroids, viability
Assay: Anticancer human tumor SK-MEL-2 cell line growth inhibition [TAK];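 also: spheroids exposed to drugs for seven days before readout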;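 as to viability, T/C: percent of DMSO vehicle control luminescence so 100% = untreated viability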
Conditions: for viability, T/C: stronger effect = lower value
Source text: Combinatorial screen of targeted agents with TAK-243 and ipatasertib in multi-cell type tumor spheroids
A high-throughput screen of multi-cell type tumor spheroids was designed to identify active combinations of targeted small molecules and TAK-243 or ipatasertib. Complex spheroids include a stromal component modeled by human endothelial cells (HUVEC) and fibroblasts modeled by human mesenchymal stem cells (MSCs). The concentration ranges selected for each drug and investigational agent were based upon clinically achievable concentrations if the clinical Cmax of the agent was known.
Compounds. The drugs and investigational agents: TAK-243 (785004), ipatasertib (767898), everolimus (733504), selumetinib (741078), bortezomib (756655), trametinib (758246), ixazomib (758254), vemurafenib (761431), dabrafenib (764134), sapanisertib (764658), alpelisib (765974), and copanlisib (816437), were obtained from the National Cancer Institute (NCI) Developmental Therapeutics Program Chemical Repository. The FDA-approved anticancer drug set is available from the NCI Developmental Therapeutics Program. […] The stock solutions were prepared in dimethyl sulfoxide (DMSO, Sigma-Aldrich, St. Louis, MO, cat. D2650) at 800-fold the tested concentration and stored at -70 degrees C prior to their use. All drugs and investigational agents were tested over a range starting from a high concentration at or near the clinical Cmax and decreasing in half-log increments. If the clinical Cmax for an agent had not been determined, the highest concentration tested was 10 microM.
NCI60 Cell Culture. NCI60 cell lines were obtained from the NCI Developmental Therapeutics Program Tumor Repository. For each lot of cells, the Repository performed Applied Biosystems AmpFLSTR Identifiler testing with PCR amplification to confirm consistency with the published Identifier STR profile for each cell line. Cells were kept in continuous culture for no more than 20 passages. The optimal seeding densities for each of the cell lines at each time point assessed were determined prior to performing the concentration response studies. Briefly, the NCI60 human tumor lines were grown as monolayers in RPMI 1640 medium supplemented with 10% FBS and 2 mmol/L L-glutamine.
An additional 2 lines were from the NCI60 cell line panel including melanomas, MALME-3M and SK-MEL-2. Pooled donor human umbilical vein endothelial cells (HUVEC, Lonza, cat. CC-2519) and human mesenchymal stem cells (hMSC, Lonza, cat. PT-2501) were purchased from Lonza (Walkersville, MD).
PDMR cell lines were grown in complete medium (DC medium): Dulbecco's modified Eagle's medium (DMEM)/F12 supplemented with 5% fetal bovine serum (FBS), 2 mM L-glutamine, 100 U/mL penicillin and 100 µg/ml streptomycin, 0.4 µg/ml hydrocortisone, 10 ng/ml epidermal growth factor (EGF) recombinant human protein, 24 µg/mL adenine, and 0.1 mg/mL primocin. During culture from frozen stock vials, PDMR cells were cultured in the same medium containing 10 µM Y-27632 (see Table 3). The PDCs were cultured in complete DMEM/F12 media without 10 microM Y-27632 dihydrochloride for at least two passages prior to the screen. The pooled donor HUVEC and hMSC were cultured in endothelial cell growth medium 2 (PromoCell, Heidelberg, Germany, cat. C-22011) and mesenchymal stem cell growth medium 2 (PromoCell, cat. C-28009), respectively. For all experiments, HUVEC and hMSC were used at passages </=5.
For the pre-screen, cell seeding densities were determined from a titration spanning the range from 5,000 to 313 cells per well. The mct-spheroids including 60% malignant cells, 25% HUVEC and 15% MSC dispensed as a mixture into U-bottom Ultra-Low Attachment 384-well plates (Corning, NY)
High-throughput Drug Combination Screening.
Prior to their inoculation into 384-well plates, malignant cells, HUVEC, and hMSC were removed from T flasks using TrypLE express (Thermo Fisher Scientific, cat. 12605036) and harvested by centrifugation for 5 min at 233 x g. […]

IC50 (curve of compound): 0.242 nM and 0.22 nM
SMILES: CC(=O)Nc1cccc(-n2c(=O)n(C3CC3)c(=O)c3c(Nc4ccc(I)cc4F)n(C)c(=O)c(C)c32)c1
viability, T/C (compound 94.9 pM): 91% and 88.6%
viability, T/C (compound 0.0003 µM): 40.3% and 35.3%
viability, T/C (compound 0.000949 µM): 17.9% and 15.7%
viability, T/C (compound 0.003 µM): 6.38% and 5.17%
viability, T/C (compound 0.00949 µM): 3.87% and 4.14%
viability, T/C (compound 0.03 µM): 2.42% and 3.1%

IC50 (curve of compound): 631 nM and 615 nM
SMILES: CC(C)(C)c1nc(-c2cccc(NS(=O)(=O)c3c(F)cccc3F)c2F)c(-c2ccnc(N)n2)s1
viability, T/C (compound 0.0316 µM): 137% and 126%
viability, T/C (compound 0.1 µM): 126% and 122%
viability, T/C (compound 0.316 µM): 82.3% and 76.3%
viability, T/C (compound 1 µM): 28.8% and 32%
viability, T/C (compound 3.16 µM): 13.3% and 16.8%
viability, T/C (compound 10 µM): 18.9% and 22.2%

IC50 (curve of compound): > 10 nM
SMILES: CC(C)CC(NC(=O)C(Cc1ccccc1)NC(=O)c1cnccn1)B(O)O (stereo unspecified)
viability, T/C (compound 31.6 pM): 117% and 109%
viability, T/C (compound 0.0001 µM): 96.5% and 94.3%
viability, T/C (compound 0.000316 µM): 101% and 98.5%
viability, T/C (compound 0.001 µM): 113% and 109%
viability, T/C (compound 0.00316 µM): 114% and 110%
viability, T/C (compound 0.01 µM): 88.5% and 99.6%

IC50 (curve of compound): 18.5 nM and 18.1 nM
SMILES: CC(C)CC(NC(=O)CNC(=O)c1cc(Cl)ccc1Cl)B1OC(=O)CC(CC(=O)O)(C(=O)O)O1 (stereo unspecified)
viability, T/C (compound 0.000316 µM): 110% and 95.1%
viability, T/C (compound 0.001 µM): 94.6% and 97.2%
viability, T/C (compound 0.00316 µM): 98% and 93.9%
viability, T/C (compound 0.01 µM): 79.3% and 75.7%
viability, T/C (compound 0.0316 µM): 24.6% and 26%
viability, T/C (compound 0.1 µM): 6.45% and 4.25%

IC50 (compound alone, run of 02/20/2020): > 30000 nM
SMILES: CC(C)NCC(C(=O)N1CCN(c2ncnc3c2C(C)CC3O)CC1)c1ccc(Cl)cc1 (stereo unspecified)

IC50 (curve of compound): 41 nM and 41.1 nM
SMILES: CC(C)n1nc(-c2ccc3oc(N)nc3c2)c2c(N)ncnc21
viability, T/C (compound 0.000316 µM): 109% and 105%
viability, T/C (compound 0.001 µM): 99.8% and 100%
viability, T/C (compound 0.00316 µM): 88.6% and 89.8%
viability, T/C (compound 0.01 µM): 86.9% and 76%
viability, T/C (compound 0.0316 µM): 52.2% and 55.5%
viability, T/C (compound 0.1 µM): 29.2% and 31.2%

IC50 (curve of compound): > 100000 nM
SMILES: CCCS(=O)(=O)Nc1ccc(F)c(C(=O)c2c[nH]c3ncc(-c4ccc(Cl)cc4)cc23)c1F
viability, T/C (compound 0.316 µM): 105% and 130%
viability, T/C (compound 1 µM): 102% and 129%
viability, T/C (compound 3.16 µM): 103% and 113%
viability, T/C (compound 10 µM): 83% and 41.8%
viability, T/C (compound 31.6 µM): 117% and 58.2%
viability, T/C (compound 100 µM): 106% and 71.2%

IC50 (curve of compound): > 100 nM
SMILES: COC1CC2CCC(C)C(O)(O2)C(=O)C(=O)N2CCCCC2C(=O)OC(C(C)CC2CCC(OCCO)C(OC)C2)CC(=O)C(C)C=C(C)C(O)C(OC)C(=O)C(C)CC(C)C=CC=CC=C1C (stereo unspecified)
viability, T/C (compound 0.000316 µM): 85% and 118%
viability, T/C (compound 0.001 µM): 66.2% and 89%
viability, T/C (compound 0.00316 µM): 57.4% and 74.4%
viability, T/C (compound 0.01 µM): 55.8% and 73.2%
viability, T/C (compound 0.0316 µM): 52.8% and 58.8%
viability, T/C (compound 0.1 µM): 47.7% and 69.9%

IC50 (curve of compound): 63.9 nM and 61.4 nM
SMILES: COc1c(OCCCN2CCOCC2)ccc2c3n(c(=NC(=O)c4cnc(N)nc4)nc12)CCN3
viability, T/C (compound 0.00316 µM): 93.1% and 92.3%
viability, T/C (compound 0.01 µM): 71.8% and 74%
viability, T/C (compound 0.0316 µM): 60.8% and 56.7%
viability, T/C (compound 0.1 µM): 44.8% and 46.6%
viability, T/C (compound 0.316 µM): 31.1% and 30.9%
viability, T/C (compound 1 µM): 20.5% and 23.6%

IC50 (curve of compound): > 10000 nM
SMILES: Cc1nc(NC(=O)N2CCCC2C(N)=O)sc1-c1ccnc(C(C)(C)C(F)(F)F)c1 (stereo unspecified)
viability, T/C (compound 0.0316 µM): 100% and 105%
viability, T/C (compound 0.1 µM): 91.2% and 91.5%
viability, T/C (compound 0.316 µM): 84.4% and 85.5%
viability, T/C (compound 1 µM): 80.7% and 83.9%
viability, T/C (compound 3.16 µM): 68.8% and 66.5%
viability, T/C (compound 10 µM): 55.6% and 54.2%

IC50 (curve of compound): < 9.49 nM
SMILES: Cn1cnc2c(F)c(Nc3ccc(Br)cc3Cl)c(C(=O)NOCCO)cc21
viability, T/C (compound 0.00949 µM): 46.8% and 40.8%
viability, T/C (compound 0.03 µM): 34.6% and 17.4%
viability, T/C (compound 0.0949 µM): 19.7% and 9.79%
viability, T/C (compound 0.3 µM): 21.9% and 7.35%
viability, T/C (compound 0.949 µM): 14.6% and 5.25%
viability, T/C (compound 3 µM): 14.1% and 2.56%

SMILES: COC1CC2CCC(C)C(O)(O2)C(=O)C(=O)N2CCCCC2C(=O)OC(C(C)CC2CCC(OCCO)C(OC)C2)CC(=O)C(C)C=C(C)C(O)C(OC)C(=O)C(C)CC(C)C=CC=CC=C1C (stereo unspecified) + CC(C)NCC(C(=O)N1CCN(c2ncnc3c2C(C)CC3O)CC1)c1ccc(Cl)cc1
IC50 (curve of first compound, second compound 0.3 µM): 4.54 nM
IC50 (curve of first compound, second compound 0.949 µM): 0.725 nM
IC50 (curve of first compound, second compound 3 µM): < 0.316 nM
IC50 (curve of first compound, second compound 9.49 µM): < 0.316 nM
IC50 (curve of first compound, second compound 30 µM): < 0.316 nM
viability, T/C (second compound 0.3 µM, first compound 0.000316 µM): 72.6%
viability, T/C (second compound 0.3 µM, first compound 0.001 µM): 60.3%
viability, T/C (second compound 0.3 µM, first compound 0.00316 µM): 48.9%
viability, T/C (second compound 0.3 µM, first compound 0.01 µM): 49.6%
viability, T/C (second compound 0.3 µM, first compound 0.0316 µM): 45.1%
viability, T/C (second compound 0.3 µM, first compound 0.1 µM): 42.6%
viability, T/C (second compound 0.949 µM, first compound 0.000316 µM): 58.9%
viability, T/C (second compound 0.949 µM, first compound 0.001 µM): 47.5%
viability, T/C (second compound 0.949 µM, first compound 0.00316 µM): 39.2%
viability, T/C (second compound 0.949 µM, first compound 0.01 µM): 38.6%
viability, T/C (second compound 0.949 µM, first compound 0.0316 µM): 37.9%
viability, T/C (second compound 0.949 µM, first compound 0.1 µM): 36.8%
viability, T/C (second compound 3 µM, first compound 0.000316 µM): 45.5%
viability, T/C (second compound 3 µM, first compound 0.001 µM): 37.7%
viability, T/C (second compound 3 µM, first compound 0.00316 µM): 27.7%
viability, T/C (second compound 3 µM, first compound 0.01 µM): 27.3%
viability, T/C (second compound 3 µM, first compound 0.0316 µM): 30.2%
viability, T/C (second compound 3 µM, first compound 0.1 µM): 28%
viability, T/C (second compound 9.49 µM, first compound 0.000316 µM): 36.7%
viability, T/C (second compound 9.49 µM, first compound 0.001 µM): 30.7%
viability, T/C (second compound 9.49 µM, first compound 0.00316 µM): 23.2%
viability, T/C (second compound 9.49 µM, first compound 0.01 µM): 23.6%
viability, T/C (second compound 9.49 µM, first compound 0.0316 µM): 24%
viability, T/C (second compound 9.49 µM, first compound 0.1 µM): 21.6%
viability, T/C (second compound 30 µM, first compound 0.000316 µM): 30.3%
viability, T/C (second compound 30 µM, first compound 0.001 µM): 27.6%
viability, T/C (second compound 30 µM, first compound 0.00316 µM): 20.4%
viability, T/C (second compound 30 µM, first compound 0.01 µM): 19.1%
viability, T/C (second compound 30 µM, first compound 0.0316 µM): 22%
viability, T/C (second compound 30 µM, first compound 0.1 µM): 17.9%
